Test results taken from patent US20240132521A1, “COMPOUNDS AND METHODS FOR MODULATING HER2” (Iambic Therapeutics, Inc., priority 2022, published 2024).

How the values were obtained:
Assay type in all cases: cell-based
[1] = molecular target: BaF3_HER2WT cells (Homo sapiens, UniProt P04626); experiment: Cell growth inhibition assay (CellTiterGlo), BaF3_HER2WT; settings: 3-day treatment, CellTiterGlo, read-out: Cell growth inhibition activity, HER2 WT
[2] = molecular target: BaF3_HER2YVMA cells (Homo sapiens, UniProt P04626, DUP772-775, cells depend on it); experiment: Cell growth inhibition assay (CellTiterGlo), BaF3_HER2YVMA; settings: 3-day treatment, CellTiterGlo, read-out: Cell growth inhibition activity, HER2 - YVMA
BaF3_HER2YVMA cells, sequence (P04626 with tags, fused parts or gaps DUP772-775): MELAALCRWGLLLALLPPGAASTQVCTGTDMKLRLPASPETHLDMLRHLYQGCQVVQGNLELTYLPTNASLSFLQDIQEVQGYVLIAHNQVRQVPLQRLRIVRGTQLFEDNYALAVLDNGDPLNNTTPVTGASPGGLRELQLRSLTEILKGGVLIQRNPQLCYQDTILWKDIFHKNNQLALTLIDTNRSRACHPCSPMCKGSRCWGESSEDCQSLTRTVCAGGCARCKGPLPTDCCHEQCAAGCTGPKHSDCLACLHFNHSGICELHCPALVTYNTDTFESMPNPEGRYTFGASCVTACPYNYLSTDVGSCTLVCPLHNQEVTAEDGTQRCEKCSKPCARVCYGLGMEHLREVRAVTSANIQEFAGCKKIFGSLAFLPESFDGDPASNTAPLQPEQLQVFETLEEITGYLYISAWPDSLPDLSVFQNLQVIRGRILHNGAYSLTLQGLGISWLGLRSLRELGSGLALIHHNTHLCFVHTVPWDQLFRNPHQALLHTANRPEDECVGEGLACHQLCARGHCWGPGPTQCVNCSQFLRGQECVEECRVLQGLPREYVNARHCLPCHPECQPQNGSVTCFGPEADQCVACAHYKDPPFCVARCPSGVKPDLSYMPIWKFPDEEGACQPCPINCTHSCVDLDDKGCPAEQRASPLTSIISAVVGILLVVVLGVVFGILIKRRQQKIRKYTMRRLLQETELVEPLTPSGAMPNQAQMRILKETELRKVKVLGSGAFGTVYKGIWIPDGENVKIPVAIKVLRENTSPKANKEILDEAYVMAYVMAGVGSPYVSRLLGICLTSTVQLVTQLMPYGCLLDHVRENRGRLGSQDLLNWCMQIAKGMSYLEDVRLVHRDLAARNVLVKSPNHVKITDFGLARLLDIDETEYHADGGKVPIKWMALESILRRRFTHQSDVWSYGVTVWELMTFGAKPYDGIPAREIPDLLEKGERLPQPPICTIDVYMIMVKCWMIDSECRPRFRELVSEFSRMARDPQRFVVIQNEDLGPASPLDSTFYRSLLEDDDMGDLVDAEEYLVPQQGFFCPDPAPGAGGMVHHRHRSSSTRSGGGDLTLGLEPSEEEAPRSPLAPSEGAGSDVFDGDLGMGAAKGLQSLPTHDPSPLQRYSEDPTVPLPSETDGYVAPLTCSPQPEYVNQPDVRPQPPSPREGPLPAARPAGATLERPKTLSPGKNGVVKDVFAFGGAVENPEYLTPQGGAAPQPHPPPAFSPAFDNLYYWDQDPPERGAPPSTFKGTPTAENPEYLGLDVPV

[3] = molecular target: BaF3_EGFRWT cells (Homo sapiens, UniProt P00533); experiment: Cell growth inhibition assay (CellTiterGlo), BaF3_EGFRWT; settings: 3-day treatment, CellTiterGlo, read-out: Cell growth inhibition activity, EGFR WT
BaF3_EGFRWT cells, sequence (P00533 whole entry, change not shown): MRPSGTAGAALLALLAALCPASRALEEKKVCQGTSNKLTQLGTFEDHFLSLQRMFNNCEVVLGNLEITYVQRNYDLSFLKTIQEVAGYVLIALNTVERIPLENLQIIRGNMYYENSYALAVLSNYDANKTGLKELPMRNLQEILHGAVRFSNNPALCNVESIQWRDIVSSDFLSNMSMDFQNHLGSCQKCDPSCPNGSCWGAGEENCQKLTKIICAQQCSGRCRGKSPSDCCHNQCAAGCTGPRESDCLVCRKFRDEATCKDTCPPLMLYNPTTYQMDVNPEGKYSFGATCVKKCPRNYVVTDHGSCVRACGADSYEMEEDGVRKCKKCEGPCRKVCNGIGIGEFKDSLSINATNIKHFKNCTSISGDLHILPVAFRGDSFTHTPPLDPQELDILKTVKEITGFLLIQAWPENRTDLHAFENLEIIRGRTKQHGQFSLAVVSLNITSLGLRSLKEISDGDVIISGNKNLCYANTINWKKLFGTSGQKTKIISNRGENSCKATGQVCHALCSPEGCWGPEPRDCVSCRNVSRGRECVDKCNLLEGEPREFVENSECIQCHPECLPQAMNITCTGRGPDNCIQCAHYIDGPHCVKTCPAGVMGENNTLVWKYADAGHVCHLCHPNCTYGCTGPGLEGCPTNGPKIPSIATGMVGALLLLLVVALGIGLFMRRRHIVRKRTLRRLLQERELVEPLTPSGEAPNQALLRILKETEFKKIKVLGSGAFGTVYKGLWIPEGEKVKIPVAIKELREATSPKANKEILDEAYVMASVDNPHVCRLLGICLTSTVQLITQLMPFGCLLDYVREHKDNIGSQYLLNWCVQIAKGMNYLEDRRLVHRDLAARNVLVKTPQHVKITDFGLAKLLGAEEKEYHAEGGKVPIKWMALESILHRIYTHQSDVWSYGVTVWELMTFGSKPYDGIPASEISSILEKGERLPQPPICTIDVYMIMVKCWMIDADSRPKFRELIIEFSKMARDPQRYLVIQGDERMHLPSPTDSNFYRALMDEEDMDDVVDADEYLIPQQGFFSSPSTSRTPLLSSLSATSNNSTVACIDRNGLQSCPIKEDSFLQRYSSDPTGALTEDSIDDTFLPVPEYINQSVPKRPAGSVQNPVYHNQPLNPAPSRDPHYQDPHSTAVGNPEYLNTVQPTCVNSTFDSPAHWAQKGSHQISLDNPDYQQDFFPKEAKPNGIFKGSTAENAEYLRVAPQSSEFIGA

BaF3_HER2WT cells, sequence (P04626 whole entry, change not shown): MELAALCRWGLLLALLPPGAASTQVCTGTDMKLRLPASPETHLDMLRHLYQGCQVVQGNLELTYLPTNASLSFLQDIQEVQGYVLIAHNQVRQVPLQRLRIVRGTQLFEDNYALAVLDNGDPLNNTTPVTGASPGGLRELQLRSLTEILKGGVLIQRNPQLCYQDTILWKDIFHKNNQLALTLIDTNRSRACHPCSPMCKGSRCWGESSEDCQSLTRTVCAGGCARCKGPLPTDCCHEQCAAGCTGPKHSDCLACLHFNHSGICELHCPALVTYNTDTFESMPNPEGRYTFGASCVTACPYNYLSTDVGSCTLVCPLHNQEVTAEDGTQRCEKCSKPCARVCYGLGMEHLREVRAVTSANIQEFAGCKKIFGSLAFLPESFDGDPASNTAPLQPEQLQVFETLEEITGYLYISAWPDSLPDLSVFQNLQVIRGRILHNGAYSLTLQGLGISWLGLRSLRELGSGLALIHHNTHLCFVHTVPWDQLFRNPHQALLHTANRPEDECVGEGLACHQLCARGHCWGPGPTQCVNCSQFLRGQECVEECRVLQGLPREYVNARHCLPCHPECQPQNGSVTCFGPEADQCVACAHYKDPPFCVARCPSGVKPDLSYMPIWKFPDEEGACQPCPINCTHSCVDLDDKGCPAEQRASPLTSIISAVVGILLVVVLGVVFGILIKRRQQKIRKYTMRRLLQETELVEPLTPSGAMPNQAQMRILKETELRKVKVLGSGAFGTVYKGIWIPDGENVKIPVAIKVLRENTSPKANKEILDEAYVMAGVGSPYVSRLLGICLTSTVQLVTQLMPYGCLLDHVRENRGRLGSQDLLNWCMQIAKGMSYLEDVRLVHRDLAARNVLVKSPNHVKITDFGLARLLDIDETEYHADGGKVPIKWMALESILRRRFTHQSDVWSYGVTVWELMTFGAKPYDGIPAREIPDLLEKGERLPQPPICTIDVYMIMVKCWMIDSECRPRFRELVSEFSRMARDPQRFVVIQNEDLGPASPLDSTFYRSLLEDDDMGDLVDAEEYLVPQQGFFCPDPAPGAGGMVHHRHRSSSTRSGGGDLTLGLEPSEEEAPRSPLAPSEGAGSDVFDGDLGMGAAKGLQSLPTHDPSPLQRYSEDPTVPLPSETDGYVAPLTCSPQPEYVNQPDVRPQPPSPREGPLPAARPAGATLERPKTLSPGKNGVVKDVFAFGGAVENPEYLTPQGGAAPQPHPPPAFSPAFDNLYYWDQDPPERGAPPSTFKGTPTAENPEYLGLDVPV

`Cc1cc(Nc2ncnn3ccc(C4CN(C(=O)/C=C/CN5CC(F)C5)C4)c23)ccc1Oc1ccn2ncnc2c1` [Example 38, (E)-1-(3-(4-((4-([1,2,4]triazolo[1,5-a]pyridin-7-yloxy)-3-methylphenyl)amino)pyrrolo[2,1-f][1,2,4]triazin-5-yl)azetidin-1-yl)-4-(3-fluoroazetidin-1-yl)but-2-en-1-one] gave a GI50 [1] of less than 200 nM, a GI50 [2] of less than 200 nM and a GI50 [3] of 1500 to 5000 nM.
`COC/C=C/C(=O)N1CC(c2ccn3ncnc(Nc4ccc(Oc5ccn6ncnc6c5)c(C)c4)c23)C1` [Example 40, (E)-1-(3-(4-((4-([1,2,4]triazolo[1,5-a]pyridin-7-yloxy)-3-methylphenyl)amino)pyrrolo[2,1-f][1,2,4]triazin-5-yl)azetidin-1-yl)-4-methoxybut-2-en-1-one] showed a GI50 [1] of 200 to 500 nM, a GI50 [2] of 200 to 500 nM and a GI50 [3] of 1500 to 5000 nM.
With `COC1CCN(C/C=C/C(=O)N2CC(c3ccn4ncnc(Nc5ccc(Oc6ccn7ncnc7c6)c(C)c5)c34)C2)C1` (stereo not drawn) [Example 41, (E)-1-(3-(4-((4-([1,2,4]triazolo[1,5-a]pyridin-7-yloxy)-3-methylphenyl)amino)pyrrolo[2,1-f][1,2,4]triazin-5-yl)azetidin-1-yl)-4-(3-methoxypyrrolidin-1-yl)but-2-en-1-one] the GI50 [1] was less than 200 nM, the GI50 [2] was less than 200 nM and the GI50 [3] was 1500 to 5000 nM.
With `COC1CCN(C/C=C/C(=O)N2CC(c3ccn4ncnc(Nc5ccc(Oc6ccn7ncnc7c6)c(C)c5)c34)C2)CC1` [Example 42, (E)-1-(3-(4-((4-([1,2,4]triazolo[1,5-a]pyridin-7-yloxy)-3-methylphenyl)amino)pyrrolo[2,1-f][1,2,4]triazin-5-yl)azetidin-1-yl)-4-(4-methoxypiperidin-1-yl)but-2-en-1-one] the GI50 [1] was less than 200 nM, the GI50 [2] was less than 200 nM and the GI50 [3] was 1500 to 5000 nM.
In the case of `Cc1cc(Nc2ncnn3ccc(C4CN(C(=O)/C=C/CC(C)C)C4)c23)ccc1Oc1ccn2ncnc2c1` [Example 43, (E)-1-(3-(4-((4-([1,2,4]triazolo[1,5-a]pyridin-7-yloxy)-3-methylphenyl)amino)pyrrolo[2,1-f][1,2,4]triazin-5-yl)azetidin-1-yl)-5-methylhex-2-en-1-one], the GI50 [1] is reported as less than 200 nM, the GI50 [2] is reported as 200 to 500 nM and the GI50 [3] is reported as 1500 to 5000 nM.
For `C=CC(=O)N1CC2CCC(C1)N2c1ccn2ncnc(Nc3ccc(Oc4ccn5ncnc5c4)c(C)c3)c12` [Example 44, 1-(8-(4-((4-([1,2,4]triazolo[1,5-a]pyridin-7-yloxy)-3-methylphenyl)amino)pyrrolo[2,1-f][1,2,4]triazin-5-yl)-3,8-diazabicyclo[3.2.1]octan-3-yl)prop-2-en-1-one], the GI50 [1] was less than 200 nM, the GI50 [2] was less than 200 nM and the GI50 [3] was 1500 to 5000 nM.
Work on `Cc1cc(Nc2ncnn3ccc(N4C5CCC4CN(C(=O)/C=C/CN(C)C)C5)c23)ccc1Oc1ccn2ncnc2c1` [Example 45, (E)-1-(8-(4-((4-([1,2,4]triazolo[1,5-a]pyridin-7-yloxy)-3-methylphenyl)amino)pyrrolo[2,1-f][1,2,4]triazin-5-yl)-3,8-diazabicyclo[3.2.1]octan-3-yl)-4-(dimethylamino)but-2-en-1-one] yielded a GI50 [1] of less than 200 nM, a GI50 [2] of less than 200 nM and a GI50 [3] of 1500 to 5000 nM.
`C=CC(=O)N1C2CCC1CN(c1ccn3ncnc(Nc4ccc(Oc5ccn6ncnc6c5)c(C)c4)c13)C2` [Example 46, 1-(3-(4-((4-([1,2,4]triazolo[1,5-a]pyridin-7-yloxy)-3-methylphenyl)amino)pyrrolo[2,1-f][1,2,4]triazin-5-yl)-3,8-diazabicyclo[3.2.1]octan-8-yl)prop-2-en-1-one] gave a GI50 [1] of less than 200 nM, a GI50 [2] of less than 200 nM and a GI50 [3] of 200 to 500 nM.
In the case of `Cc1cc(Nc2ncnn3ccc(N4CC5CCC(C4)N5C(=O)/C=C/CN(C)C)c23)ccc1Oc1ccn2ncnc2c1` [Example 47, (E)-1-(3-(4-((4-([1,2,4]triazolo[1,5-a]pyridin-7-yloxy)-3-methylphenyl)amino)pyrrolo[2,1-f][1,2,4]triazin-5-yl)-3,8-diazabicyclo[3.2.1]octan-8-yl)-4-(dimethylamino)but-2-en-1-one], the GI50 [1] is reported as less than 200 nM, the GI50 [2] is reported as less than 200 nM and the GI50 [3] is reported as 1500 to 5000 nM.
Molecule `C=C(CN(C)C)C(=O)N1C2CCC1CN(c1ccn3ncnc(Nc4ccc(Oc5ccn6ncnc6c5)c(C)c4)c13)C2` [Example 48, 1-(3-(4-((4-([1,2,4]triazolo[1,5-a]pyridin-7-yloxy)-3-methylphenyl)amino)pyrrolo[2,1-f][1,2,4]triazin-5-yl)-3,8-diazabicyclo[3.2.1]octan-8-yl)-2-((dimethylamino)methyl)prop-2-en-1-one] has a GI50 [1] of 200 to 500 nM, a GI50 [2] of 1500 to 5000 nM and a GI50 [3] of 1500 to 5000 nM.
`C=C(CN(C)C)C(=O)N1CC2CCC(C1)N2c1ccn2ncnc(Nc3ccc(Oc4ccn5ncnc5c4)c(C)c3)c12` [Example 49, 1-(8-(4-((4-([1,2,4]triazolo[1,5-a]pyridin-7-yloxy)-3-methylphenyl)amino)pyrrolo[2,1-f][1,2,4]triazin-5-yl)-3,8-diazabicyclo[3.2.1]octan-3-yl)-2-((dimethylamino)methyl)prop-2-en-1-one acetate] was tested, and the GI50 [1] was less than 200 nM, the GI50 [2] was less than 200 nM and the GI50 [3] was 1500 to 5000 nM.
For `Cc1cc(Nc2ncnn3ccc(C4(O)CCN(C(=O)/C=C/CN(C)C)CC4)c23)ccc1Oc1ccn2ncnc2c1` [Example 50, (E)-1-(4-(4-((4-([1,2,4]triazolo[1,5-a]pyridin-7-yloxy)-3-methylphenyl)amino)pyrrolo[2,1-f][1,2,4]triazin-5-yl)-4-hydroxypiperidin-1-yl)-4-(dimethylamino)but-2-en-1-one], the GI50 [1] was 200 to 500 nM, the GI50 [2] was 500 to 1500 nM and the GI50 [3] was 1500 to 5000 nM.
In the case of `Cc1cc(Nc2ncnn3ccc(C4(O)CN(C(=O)/C=C/CN(C)C)C4)c23)ccc1Oc1ccn2ncnc2c1` [Example 51, (E)-1-(3-(4-((4-([1,2,4]triazolo[1,5-a]pyridin-7-yloxy)-3-methylphenyl)amino)pyrrolo[2,1-f][1,2,4]triazin-5-yl)-3-hydroxyazetidine-1-yl)-4-(dimethylamino)but-2-en-1-one], the GI50 [1] is reported as less than 200 nM, the GI50 [2] is reported as less than 200 nM and the GI50 [3] is reported as 1500 to 5000 nM.
With `COC1(c2ccn3ncnc(Nc4ccc(Oc5ccn6ncnc6c5)c(C)c4)c23)CCN(C(=O)/C=C/CN(C)C)CC1` [Example 52, (E)-1-(4-(4-((4-([1,2,4]triazolo[1,5-a]pyridin-7-yloxy)-3-methylphenyl)amino)pyrrolo[2,1-f][1,2,4]triazin-5-yl)-4-methoxypiperidin-1-yl)-4-(dimethylamino)but-2-en-1-one] the GI50 [1] was 200 to 500 nM, the GI50 [2] was 500 to 1500 nM and the GI50 [3] was 1500 to 5000 nM.
For `Cc1cc(Nc2ncnn3ccc(C4=CCN(C(=O)/C=C/CN(C)C)CC4)c23)ccc1Oc1ccn2ncnc2c1` [Example 53, (E)-1-(4-(4-((4-([1,2,4]triazolo[1,5-a]pyridin-7-yloxy)-3-methylphenyl)amino)pyrrolo[2,1-f][1,2,4]triazin-5-yl)-3,6-dihydropyridin-1(2H)-yl)-4-(dimethylamino)but-2-en-1-one], the GI50 [1] was less than 200 nM, the GI50 [2] was less than 200 nM and the GI50 [3] was 1500 to 5000 nM.
For `Cc1cc(Nc2ncnn3ccc(N4CCN(C(=O)/C=C/CN(C)C)CC4=O)c23)ccc1Oc1ccn2ncnc2c1` [Example 54, (E)-1-(4-((4-([1,2,4]triazolo[1,5-a]pyridin-7-yloxy)-3-methylphenyl)amino)pyrrolo[2,1-f][1,2,4]triazin-5-yl)-4-(4-(dimethylamino)but-2-enoyl)piperazin-2-one], the GI50 [1] was 500 to 1500 nM, the GI50 [2] was 1500 to 5000 nM and the GI50 [3] was 1500 to 5000 nM.
